Data reported in the supplement of paper PMC11451515.

Assays:
Settings in all cases: 48 h
[1] = system: P12-Ichikawa; test: cell viability relative to DMSO control; higher = less cytotoxic
Procedure, shortened: (§1)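 Viability is expressed as a percentage of DMSO wells within each plate, and cell-free wells serve as background. Seeding densities in the 1536-well plates (5 μl) were 500 cells/well for NOMO1 or SEM leukemia cells and 1000 cells/well for P12-Ichikawa. Each line was adapted for at least four passages in each medium. Library compounds in DMSO were pin-dosed at 47 μM to 0.79 nM (11 points, threefold), and CellTiter-Glo One luminescence was read after 48 h at 37°C.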

[2] = system: SEM cells; test: as above
Procedure, shortened: as §1

[3] = system: NOMO1; test: as above
Procedure, shortened: as §1

[4] = system: P12-Ichikawa; test: AUC of viability dose-response curve (% viability x log10 dose units); higher = less sensitive
Procedure, shortened: (§2)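 Library compounds in DMSO were applied for 48 h at 37°C at 11 threefold doses (47 μM to 0.79 nM) to medium-adapted leukemia cells in 1536-well plates holding 500 or 1000 cells/well. Luminescence from CellTiter-Glo One was normalised plate by plate against DMSO and cell-free wells. Area under the curve came from trapezoidal integration of a log-logistic fit, after scaling curves that rose above full viability and discarding those that failed quality control. The fit had four parameters and used log10 doses.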

[5] = system: SEM cells; test: as above
Procedure, shortened: as §2

[6] = system: NOMO1; test: as above
Procedure, shortened: as §2

Cc1ccc(NC(=O)c2ccc(CN3CCN(C)CC3)cc2)cc1Nc1nc(-c2cccnc2)cs1
cell viability [%]
Settings	[1]	[2]	[3]
HPLM + 10% dialyzed FBS, 0.000781 µM	102	56.2	103
HPLM + 10% dialyzed FBS, 0.00234 µM	104	90.4	98.1
HPLM + 10% dialyzed FBS, 0.00702 µM	106	87.9	99.3
HPLM + 10% dialyzed FBS, 0.0211 µM	103	65.4	105
HPLM + 10% dialyzed FBS, 0.0632 µM	106	53.1	96.6
HPLM + 10% dialyzed FBS, 0.19 µM	102	47.6	89.3
HPLM + 10% dialyzed FBS, 0.569 µM	101	42.4	82.6
HPLM + 10% dialyzed FBS, 1.71 µM	92.7	32.7	75.3
HPLM + 10% dialyzed FBS, 5.12 µM	70.5	28.2	76.8
HPLM + 10% dialyzed FBS, 15.4 µM	57	20.2	73
HPLM + 10% dialyzed FBS, 46.1 µM	41.3	24.6	75.2
RPMI 5 mM glucose + 10% FBS, 0.000781 µM	105	64.8	95.9
RPMI 5 mM glucose + 10% FBS, 0.00234 µM	101	99	104
RPMI 5 mM glucose + 10% FBS, 0.00702 µM	110	93.2	93
RPMI 5 mM glucose + 10% FBS, 0.0211 µM	113	71.2	94.9
RPMI 5 mM glucose + 10% FBS, 0.0632 µM	100	70.9	99.4
RPMI 5 mM glucose + 10% FBS, 0.19 µM	111	51.7	102
RPMI 5 mM glucose + 10% FBS, 0.569 µM	89.1	43.7	89.3
RPMI 5 mM glucose + 10% FBS, 1.71 µM	89.7	34.8	108
RPMI 5 mM glucose + 10% FBS, 5.12 µM	63	23.6	107
RPMI 5 mM glucose + 10% FBS, 15.4 µM	50.4	15.7	106
RPMI 5 mM glucose + 10% FBS, 46.1 µM	49.7	17.1	74.6
RPMI 5 mM glucose + 10% dialyzed FBS, 0.000781 µM	108	54.5	97.2
RPMI 5 mM glucose + 10% dialyzed FBS, 0.00234 µM	112	88.4	102
RPMI 5 mM glucose + 10% dialyzed FBS, 0.00702 µM	109	74.7	98.6
RPMI 5 mM glucose + 10% dialyzed FBS, 0.0211 µM	109	65.1	104
RPMI 5 mM glucose + 10% dialyzed FBS, 0.0632 µM	110	63.6	93.4
RPMI 5 mM glucose + 10% dialyzed FBS, 0.19 µM	108	46.7	111
RPMI 5 mM glucose + 10% dialyzed FBS, 0.569 µM	95.5	37.5	87.1
RPMI 5 mM glucose + 10% dialyzed FBS, 1.71 µM	95.1	29.7	86.1
RPMI 5 mM glucose + 10% dialyzed FBS, 5.12 µM	62.1	22.1	85.9
RPMI 5 mM glucose + 10% dialyzed FBS, 15.4 µM	46.1	10.9	78.8
RPMI 5 mM glucose + 10% dialyzed FBS, 46.1 µM	45.4	18	74.3

AUC of viability dose-response curve
Settings	[4]	[5]	[6]
HPLM + 10% dialyzed FBS	417	238	417
RPMI 5 mM glucose + 10% FBS	405	255	468
RPMI 5 mM glucose + 10% dialyzed FBS	406	223	440

CC(=O)Oc1ccccc1C(=O)O
cell viability [%]
Settings	[1]	[2]	[3]
HPLM + 10% dialyzed FBS, 0.000781 µM	99.8	104	106
HPLM + 10% dialyzed FBS, 0.00234 µM	96.4	99.4	107
HPLM + 10% dialyzed FBS, 0.00702 µM	102	105	104
HPLM + 10% dialyzed FBS, 0.0211 µM	93.9	106	105
HPLM + 10% dialyzed FBS, 0.0632 µM	101	102	115
HPLM + 10% dialyzed FBS, 0.19 µM	101	106	107
HPLM + 10% dialyzed FBS, 0.569 µM	96.6	105	107
HPLM + 10% dialyzed FBS, 1.71 µM	95.5	97.3	99.2
HPLM + 10% dialyzed FBS, 5.12 µM	90.3	88.2	88
HPLM + 10% dialyzed FBS, 15.4 µM	96.4	99.9	98.9
HPLM + 10% dialyzed FBS, 46.1 µM	101	96.7	103
RPMI 5 mM glucose + 10% FBS, 0.000781 µM	106	110	93.8
RPMI 5 mM glucose + 10% FBS, 0.00234 µM	101	104	95.9
RPMI 5 mM glucose + 10% FBS, 0.00702 µM	104	100	92.9
RPMI 5 mM glucose + 10% FBS, 0.0211 µM	98.6	120	88.4
RPMI 5 mM glucose + 10% FBS, 0.0632 µM	101	107	97.9
RPMI 5 mM glucose + 10% FBS, 0.19 µM	86.5	104	87.4
RPMI 5 mM glucose + 10% FBS, 0.569 µM	87.3	120	95.2
RPMI 5 mM glucose + 10% FBS, 1.71 µM	105	111	106
RPMI 5 mM glucose + 10% FBS, 5.12 µM	95.9	99.3	88.3
RPMI 5 mM glucose + 10% FBS, 15.4 µM	96.4	105	101
RPMI 5 mM glucose + 10% FBS, 46.1 µM	99.3	95.1	90.4
RPMI 5 mM glucose + 10% dialyzed FBS, 0.000781 µM	97.2	102	97.7
RPMI 5 mM glucose + 10% dialyzed FBS, 0.00234 µM	97.5	99.4	104
RPMI 5 mM glucose + 10% dialyzed FBS, 0.00702 µM	98.7	109	106
RPMI 5 mM glucose + 10% dialyzed FBS, 0.0211 µM	105	111	109
RPMI 5 mM glucose + 10% dialyzed FBS, 0.0632 µM	101	108	110
RPMI 5 mM glucose + 10% dialyzed FBS, 0.19 µM	93.6	102	93.4
RPMI 5 mM glucose + 10% dialyzed FBS, 0.569 µM	89.2	113	91.8
RPMI 5 mM glucose + 10% dialyzed FBS, 1.71 µM	99.6	108	105
RPMI 5 mM glucose + 10% dialyzed FBS, 5.12 µM	93.2	108	88.4
RPMI 5 mM glucose + 10% dialyzed FBS, 15.4 µM	104	100	94.9
RPMI 5 mM glucose + 10% dialyzed FBS, 46.1 µM	103	111	96.6

AUC of viability dose-response curve
Settings	[4]	[5]	[6]
HPLM + 10% dialyzed FBS	466	463	461
RPMI 5 mM glucose + 10% FBS	450	466	450
RPMI 5 mM glucose + 10% dialyzed FBS	450	469	452

COc1cc2c(cc1OC)C1CC(=O)C(CC(C)C)CN1CC2 (configuration not stated)
cell viability [%]
Settings	[1]	[2]	[3]
HPLM + 10% dialyzed FBS, 0.000781 µM	122	84.5	–
HPLM + 10% dialyzed FBS, 0.00234 µM	122	116	–
HPLM + 10% dialyzed FBS, 0.00702 µM	116	99.6	–
HPLM + 10% dialyzed FBS, 0.0211 µM	118	107	–
HPLM + 10% dialyzed FBS, 0.0632 µM	113	98.4	–
HPLM + 10% dialyzed FBS, 0.19 µM	127	100	–
HPLM + 10% dialyzed FBS, 0.569 µM	117	118	–
HPLM + 10% dialyzed FBS, 1.71 µM	122	110	–
HPLM + 10% dialyzed FBS, 5.12 µM	116	112	–
HPLM + 10% dialyzed FBS, 15.4 µM	114	103	–
HPLM + 10% dialyzed FBS, 46.1 µM	106	96.5	–
RPMI 5 mM glucose + 10% FBS, 0.000781 µM	–	116	116
RPMI 5 mM glucose + 10% FBS, 0.00234 µM	–	114	106
RPMI 5 mM glucose + 10% FBS, 0.00702 µM	–	110	106
RPMI 5 mM glucose + 10% FBS, 0.0211 µM	–	118	104
RPMI 5 mM glucose + 10% FBS, 0.0632 µM	–	103	134
RPMI 5 mM glucose + 10% FBS, 0.19 µM	–	110	117
RPMI 5 mM glucose + 10% FBS, 0.569 µM	–	114	116
RPMI 5 mM glucose + 10% FBS, 1.71 µM	–	118	104
RPMI 5 mM glucose + 10% FBS, 5.12 µM	–	118	113
RPMI 5 mM glucose + 10% FBS, 15.4 µM	–	116	113
RPMI 5 mM glucose + 10% FBS, 46.1 µM	–	109	103
RPMI 5 mM glucose + 10% dialyzed FBS, 0.000781 µM	117	120	117
RPMI 5 mM glucose + 10% dialyzed FBS, 0.00234 µM	119	140	133
RPMI 5 mM glucose + 10% dialyzed FBS, 0.00702 µM	121	113	109
RPMI 5 mM glucose + 10% dialyzed FBS, 0.0211 µM	124	117	115
RPMI 5 mM glucose + 10% dialyzed FBS, 0.0632 µM	122	97.1	148
RPMI 5 mM glucose + 10% dialyzed FBS, 0.19 µM	125	129	124
RPMI 5 mM glucose + 10% dialyzed FBS, 0.569 µM	118	111	128
RPMI 5 mM glucose + 10% dialyzed FBS, 1.71 µM	125	129	121
RPMI 5 mM glucose + 10% dialyzed FBS, 5.12 µM	109	124	115
RPMI 5 mM glucose + 10% dialyzed FBS, 15.4 µM	115	119	110
RPMI 5 mM glucose + 10% dialyzed FBS, 46.1 µM	102	103	125

AUC of viability dose-response curve
Settings	[4]	[5]	[6]
HPLM + 10% dialyzed FBS	459	471	448
RPMI 5 mM glucose + 10% FBS	459	476	470
RPMI 5 mM glucose + 10% dialyzed FBS	466	459	469
